Patent publication US20260297105A1, “RAF-MEK PROTEIN COMPLEX MODULATORS AND METHODS OF USE THEREOF” (GANDEEVA THERAPEUTICS, INC., priority 2023, published 2026)

What was measured:
MEK1 = molecular target: T1, MEK1 (Homo sapiens, UniProt Q02750); assay: MEK1 kinase cascade assay (ADP-Glo), inhibition of MEK1 kinase activity; format: biochemical; settings: 25 nM BRAF, 6.25 nM MEK1, 0.5 μM ERK, 1 mM ATP; 20 min preincubation, 1 hr at 25° C.; read-out: BRAF ADP Glo kinase assay V3 (IC50)
T1 construct: purchased SignalChem M02-14H
In short: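 Compounds were preincubated 20 mins at 25° C with 25 nM BRAF(445-723) in 10 mM HEPES pH 7.5, 5 mM MgCl2, 2 mM CHAPS, 1 mM DTT, then 6.25 nM MEK1, 0.5 μM ERK1 and 1 mM ATP were added for 1 hr at 25° C, with 1% DMSO. ADP-Glo luminescence was normalized to DMSO and 1 μM Trametinib; IC50 came from 4-parameter fits of duplicates.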

NCI-H292 cells = assay: Cell viability assay (CellTiter-Glo), NCI-H292; format: cell-based; settings: Homo sapiens, 72 hrs, read-out: Cell Viability Assay: IC50 Determination NCI-H292
Description: Cell culture: HCTI 16, HT-29, and NCI-H292 cells were acquired from American Type Culture Collection (ATCC). HCT116 and HT-29 cells were maintained in ATCC-formulated McCoy's 5a Medium Modified supplemented with 10% fetal bovine serum, NCI-H292 cells were cultured in ATCC formulated RPMI-1640 supplemented with 10% fetal bovine serum. All cells were maintained at 37° C., 5% CO2.
Efficacy of exemplary compounds in inhibition of cell viability: HCT116 and HT-29 cells were plated at 4,000 cells per well and NCI-H292 cells were plated at 2,000 cells per well in their respective media in 384-well white, TC-treated plates (Corning). After 24 hours of incubation, the cells were treated with vehicle (DMSO) or test compounds (0.1% DMSO in final volume) for 72 hrs. The plate was equilibrated at room temperature for 10 mins followed by addition of a 1:1 volume of CellTiter-Glo® reagent (Promega). The contents were mixed for 2 mins on an orbital shaker to induce lysis. The plate was incubated at room temperature for 10 mins to stabilize luminescent signal before measuring luminescence on a Cytation5 microplate reader (Agilent). % inhibition as a function of compound concentration from 3 replicate wells was fit with a 4-parameter logistic curve using GraphPad Prism or CDD Vault to derive IC50 values.
In this table, for the BRAF ADP Glo kinase assay, “A” indicates IC50 of less than 5 nM; “B” indicates IC50 of between 5 nM to 50 nM; and “C” indicates IC50 of between 50 nM to 500 nM. “D” indicates IC50 of greater than 500 nM. For the BRAF-MEK TR-FRET assay, “A” indicates EC50 of less than 50 nM; “B” indicates EC50 of between 50 nM to 200 nM; and “C” indicates EC50 of between 200 nM to 1 μM. “D′” indicates EC50 of greater than 1 μM. For the AlphaLisa P-ERK assay, “A” indicates IC50 of less than 1 nM; “B” indicates IC50 of between 1 nM to 10 nM; and “C” indicates IC50 of between 10 nM to 100 nM. “D” indicates IC50 of greater than 100 nM. For the cell viability assay, “A” indicates IC50 of less than 1 nM; “B” indicates IC50 of between 1 nM to 10 nM; and “C” indicates IC50 of between 10 nM to 100 nM. “D” indicates IC50 of greater than 100 nM.

BRAF-MEK1 = assay: BRAF-MEK TR-FRET assay, stabilization of MEK1 and BRAF interaction; format: binding; settings: 4 nM BRAF, 10 nM MEK, 100 μM ATP; 1 hr at 25° C.; read-out: BRAF-MEK TR-FRET Assay (EC50, fold stabilization)
In short: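 His-MEK1 (full-length, E. coli) at 10 nM with GST-BRAF at 4 nM, 1 h at 25° C in pH 7.5 Tris buffer with 5 mM MgCl2 and 100 μM ATP; anti-His-Tb/anti-GST-XL665 added for 1 h more. 665/620 FRET ratio over DMSO gives fold stabilization; EC50 from 4-parameter fit, duplicate wells.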

T1 sequence (Q02750 whole entry): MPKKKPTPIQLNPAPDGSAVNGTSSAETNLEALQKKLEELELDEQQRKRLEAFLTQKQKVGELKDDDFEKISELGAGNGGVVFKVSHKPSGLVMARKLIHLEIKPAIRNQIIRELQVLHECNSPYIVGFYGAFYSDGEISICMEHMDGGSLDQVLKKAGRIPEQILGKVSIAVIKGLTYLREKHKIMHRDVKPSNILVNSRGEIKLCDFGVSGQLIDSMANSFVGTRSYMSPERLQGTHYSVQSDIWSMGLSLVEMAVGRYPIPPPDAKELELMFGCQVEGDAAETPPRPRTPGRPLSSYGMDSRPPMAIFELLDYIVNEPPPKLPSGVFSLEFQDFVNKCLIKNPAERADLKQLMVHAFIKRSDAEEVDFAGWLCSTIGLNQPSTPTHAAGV
T1 sequence (P15056 445-723 partner limits assumed): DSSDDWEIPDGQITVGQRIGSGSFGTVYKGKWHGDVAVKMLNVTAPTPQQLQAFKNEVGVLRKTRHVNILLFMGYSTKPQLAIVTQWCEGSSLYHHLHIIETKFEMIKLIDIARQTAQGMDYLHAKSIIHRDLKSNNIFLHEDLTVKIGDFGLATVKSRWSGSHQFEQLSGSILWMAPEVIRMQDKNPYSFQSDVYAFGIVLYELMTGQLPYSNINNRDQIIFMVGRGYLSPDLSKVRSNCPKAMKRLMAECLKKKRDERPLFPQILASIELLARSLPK

SMILES | IC50 (MEK1) [nM] | IC50 (NCI-H292 cells) [nM] | EC50 (BRAF-MEK1) [nM]
CNS(=O)(=O)Nc1cccc(CN2C(=O)Oc3cc(Oc4ncco4)ccc3C2(C)C)c1F [Compound 74, 3-({2-fluoro-3-[(methylsulfamoyl)amino]phenyl}methyl)-4,4-dimethyl-7-(1,3-oxazol-2-yloxy)-3,4-dihydro-2H-1,3-benzoxazin-2-one] | 5 to 50 | 1 to 10 | –
CNS(=O)(=O)Nc1nccc(CN2C(=O)Oc3c(ccc(Oc4nccnn4)c3F)C23CCC3)c1F [Compound 177, 8-fluoro-3-{[3-fluoro-2-(methylaminosulfonylamino)-4-pyridyl]methyl}-7-(1,2,4-triazin-3-yloxy)-2H,3H-spiro[1,3-benzoxazine-4,1′-cyclobutan]-2-one] | < 5 | – | < 50
CNS(=O)(=O)Nc1nccc(CN2C(=O)Oc3cc(Oc4ncco4)cc(F)c3C23COC3)c1F [Compound 168, 5-fluoro-3-{[3-fluoro-2-(methylaminosulfonylamino)-4-pyridyl]methyl}-7-(1,3-oxazol-2-yloxy)-2H,3H-spiro[1,3-benzoxazine-4,3′-oxetan]-2-one] | 5 to 50 | – | 200 to 1000
CNS(=O)(=O)Nc1cccc(CN2Cc3ccc(OC(=O)N(C)C)cc3OC2=O)c1F [Compound 156, 3-(2-fluoro-3-((N-methylsulfamoyl)amino)benzyl)-2-oxo-3,4-dihydro-2H-benzo[e][1,3]oxazin-7-yl dimethylcarbamate] | 5 to 50 | – | 200 to 1000
CNS(=O)(=O)Nc1nccc(CN2C(=O)Oc3c(ccc(Oc4ncco4)c3F)C23CCC3)c1F [Compound 173, 8-fluoro-3-{[3-fluoro-2-(methylaminosulfonylamino)-4-pyridyl]methyl}-7-(1,3-oxazol-2-yloxy)-2H,3H-spiro[1,3-benzoxazine-4,1′-cyclobutan]-2-one] | 5 to 50 | – | < 50
CNS(=O)(=O)Nc1cccc(CN2C(=O)Oc3cc(OC(=O)N(C)C)ccc3[C@H]2C)c1F [Compound 153, 3-(2-fluoro-3-((N-methylsulfamoyl)amino)benzyl)-4-methyl-2-oxo-3,4-dihydro-2H-benzo[e][1,3]oxazin-7-yl dimethylcarbamate] | 5 to 50 | – | 200 to 1000
CNS(=O)(=O)Nc1nccc(CN2C(=O)Oc3cc(Oc4ncco4)cnc3[C@@H]2C)c1F (stereo in doubt) [Compound 191, 3-{[3-fluoro-2-(methylaminosulfonylamino)-4-pyridyl]methyl}-4-methyl-7-(1,3-oxazol-2-yloxy)-3,4-dihydro-2H-1-oxa-3,5-diazanaphthalen-2-one] | 50 to 500 | – | 50 to 200
CN(C)C(=O)Oc1ccc2c(c1)OC(=O)N(Cc1cccc(NS(=O)(=O)N(C)C)c1F)C21CCC1 [Compound 33, 3-({3-[(dimethylsulfamoyl)amino]-2-fluorophenyl}methyl)-2-oxo-2,3-dihydrospiro[1,3-benzoxazine-4,1′-cyclobutan]-7-yl N,N-dimethyl carbamate] | 5 to 50 | – | 50 to 200
CNS(=O)(=O)Nc1nccc(CN2C(=O)Oc3cc(Oc4cccnn4)ccc3C23COC3)c1F [Compound 24, 3-({3-fluoro-2-[(methylsulfamoyl)amino]pyridin-4-yl}methyl)-7-(pyridazin-3-yloxy)-2,3-dihydrospiro[1,3-benzoxazine-4,3′-oxetan]-2-one] | 5 to 50 | – | 50 to 200
CNS(=O)(=O)Nc1cccc(CN2C(=O)Oc3cc(Oc4cccnn4)ccc3C23CC3)c1F [Compound 196, 3-{[2-fluoro-3-(methylaminosulfonylamino)phenyl]methyl}-7-(3-pyridazinyloxy)-2H,3H-spiro[1,3-benzoxazine-4,1′-cyclopropan]-2-one] | < 5 | – | < 50
CNS(=O)(=O)Nc1cc(F)cc(CN2C(=O)Oc3cc(Oc4cccnn4)ccc3C23CCC3)c1F [Compound 194, 3-{[2,5-difluoro-3-(methylaminosulfonylamino)phenyl]methyl}-7-(3-pyridazinyloxy)-2H,3H-spiro[1,3-benzoxazine-4,1′-cyclobutan]-2-one] | 5 to 50 | – | 50 to 200
CNS(=O)(=O)Nc1cccc(CN2C(=O)Oc3cc(Oc4cccnn4)cnc3[C@H]2C)c1F (stereo in doubt) [Compound 175] | 5 to 50 | – | 50 to 200
CNS(=O)(=O)Nc1cccc(CN2C(=O)Oc3c(ccc(Oc4cccnn4)c3F)[C@H]2C)c1F (single isomer, unassigned) [Compound 36] | 5 to 50 | – | 50 to 200
CNS(=O)(=O)Nc1nccc(CN2C(=O)Oc3cc(Oc4cccnn4)cc(F)c3C23CCC3)c1F [Compound 171, 5-fluoro-3-{[3-fluoro-2-(methylaminosulfonylamino)-4-pyridyl]methyl}-7-(3-pyridazinyloxy)-2H,3H-spiro[1,3-benzoxazine-4,1′-cyclobutan]-2-one] | < 5 | – | < 50
CN(C)S(=O)(=O)Nc1cccc(CN2Cc3ccc(Oc4cccnn4)cc3OC2=O)c1F [Compound 37, 3-{[3-(dimethylaminosulfonylamino)-2-fluorophenyl]methyl}-7-(3-pyridazinyloxy)-3,4-dihydro-2H-1,3-benzoxazin-2-one] | 5 to 50 | – | 50 to 200
CNS(=O)(=O)Nc1cccc(CN2C(=O)Oc3c(ccc(OC(=O)N(C)C)c3F)[C@H]2C)c1F (single isomer, unassigned) [Compound 104, (R)-8-fluoro-3-(2-fluoro-3-((N-methylsulfamoyl)amino)benzyl)-4-methyl-2-oxo-3,4-dihydro-2H-benzo[e][1,3]oxazin-7-yl dimethylcarbamate or (S)-8-fluoro-3-(2-fluoro-3-((N-methylsulfamoyl)amino)benzyl)-4-methyl-2-oxo-3,4-dihydro-2H-benzo[e][1,3]oxazin-7-yl dimethylcarbamate] | 5 to 50 | – | 200 to 1000
CNS(=O)(=O)Nc1cccc(CN2C(=O)Oc3cc(OC(=O)N(C)C)ccc3C23CN(C)C3)c1F [Compound 48, 3′-(2-fluoro-3-((N-methylsulfamoyl)amino)benzyl)-1-methyl-2′-oxo-2′,3′-dihydrospiro[azetidine-3,4′-benzo[e][1,3]oxazin]-7′-yl dimethylcarbamate] | 5 to 50 | – | 200 to 1000
CNS(=O)(=O)Nc1cccc(CN2Cc3cc(F)c(Oc4ncccn4)cc3OC2=O)c1F [Compound 83, 6-fluoro-3-{[2-fluoro-3-(methylaminosulfonylamino)phenyl]methyl}-7-(2-pyrimidinyloxy)-3,4-dihydro-2H-1,3-benzoxazin-2-one] | 5 to 50 | – | 200 to 1000
CNS(=O)(=O)Nc1nccc(CN2C(=O)Oc3cc(Oc4cccnn4)ccc3[C@H]2C)c1F (single isomer, unassigned) [Compound 23] | 5 to 50 | – | < 50
CNS(=O)(=O)Nc1cccc(CN2C(=O)Oc3cc(Oc4ncco4)cc(F)c3[C@@H]2C)c1F (single isomer, unassigned) [Compound 86, (S)-5-fluoro-3-({2-fluoro-3-(methylsulfamoyl)amino]phenyl}methyl)-4-methyl-7-(1,3-oxazol-2-yloxy)-3,4-dihydro-2H-1,3-benzoxazin-2-one or (R)-5-fluoro-3-({2-fluoro-3-(methylsulfamoyl)amino]phenyl}methyl)-4-methyl-7-(1,3-oxazol-2-yloxy)-3,4-dihydro-2H-1,3-benzoxazin-2-one] | 5 to 50 | – | 200 to 1000
